Key:
G1 APOL1 = biological target: T1, G1 APOL1 (Homo sapiens, UniProt O14791, I384M/S342G); assay: Acute APOL1 Thallium Assay with inducible stable clones of HEK 293 cells; type: cell-based; settings: HEK 293 T-Rex inducible stable clone expressing G1 APOL1; read-out: Thallium Assay (IC50)
T1 construct: expressed in transfected cells
T1 sequence (O14791 28-398 S342G/I384M): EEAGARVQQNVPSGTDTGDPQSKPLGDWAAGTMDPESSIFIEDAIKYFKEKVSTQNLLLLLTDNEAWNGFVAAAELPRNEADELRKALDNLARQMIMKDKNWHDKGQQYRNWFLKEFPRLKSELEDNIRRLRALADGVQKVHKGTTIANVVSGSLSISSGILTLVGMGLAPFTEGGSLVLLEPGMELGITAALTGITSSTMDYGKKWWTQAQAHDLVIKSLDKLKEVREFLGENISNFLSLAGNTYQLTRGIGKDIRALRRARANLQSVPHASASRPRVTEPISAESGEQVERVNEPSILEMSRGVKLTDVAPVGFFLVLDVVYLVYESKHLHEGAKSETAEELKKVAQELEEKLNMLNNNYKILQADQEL
How it was run: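 APOL1 pore function was measured as thallium influx, detected by a Tl+-sensitive fluorescent dye loaded as AM ester, on a FLIPR Tetra after Tl+ addition. Cells were HEK T-Rex G1 APOL1 clone DC3.25, 26,000 per well, induced with tetracycline at plating in Opti-MEM assay medium.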

APOL1 G1 Protein = biological target: T2, APOL1 G1 Protein (Homo sapiens, UniProt O14791, I384M/S342G); assay: Trypanosoma brucei brucei lysis assay using APOL1 recombinant protein (AlamarBlue viability); type: cell-based; settings: Trypanosoma brucei brucei lysis with recombinant APOL1 protein
T2 sequence (O14791 28-398 S342G/I384M): T1 sequence (O14791 28-398 S342G/I384M)

`NCC1CC(c2c(-c3ccc(OC(F)(F)F)cc3)[nH]c3c(F)cc(F)cc23)C1` (centres unmarked) [Compound 180] gave an IC50 (G1 APOL1) of under 250 nM and an IC50 (APOL1 G1 Protein) of under 250 nM.

Compound `CC(=O)N1CCC(Cc2c(-c3ccc(F)cc3)[nH]c3c(F)cc(F)cc23)C1` (centres unmarked) [Compound 444, 1-(3-((5,7-difluoro-2-(4-fluorophenyl)-1H-indol-3-yl)methyl)pyrrolidin-1-yl)ethan-1-one] has an IC50 (G1 APOL1) of over 1000 nM and an IC50 (APOL1 G1 Protein) of 250 to 1000 nM.

In the case of `COc1ccc(-c2[nH]c3c(F)cc(F)cc3c2C2CC(CN)C2)cc1` (centres unmarked) [Compound 183], the IC50 (G1 APOL1) is reported as under 250 nM and the IC50 (APOL1 G1 Protein) is reported as under 250 nM.

In the case of `COc1ccc(-c2[nH]c3c(F)cc(F)cc3c2C2CC(N)C2)cc1` (mixture of isomers) [Compound 12, 3-[5,7-difluoro-2-(4-methoxyphenyl)-1H-indol-3-yl]cyclobutanamine], the IC50 (G1 APOL1) is reported as 250 to 1000 nM and the IC50 (APOL1 G1 Protein) is reported as under 250 nM.

With `CC(=O)NC1CC(c2c(-c3ccc(F)cc3)[nH]c3c(F)cc(F)cc23)C1` (centres unmarked) [Compound 17, N-[3-[5,7-difluoro-2-(4-fluorophenyl)-1H-indol-3-yl]cyclobutyl]acetamide] the IC50 (G1 APOL1) was 250 to 1000 nM and the IC50 (APOL1 G1 Protein) was 250 to 1000 nM.

For `COCCNCC1CC(c2c(-c3ccc(F)cc3)[nH]c3c(F)cc(F)cc23)C1` (centres unmarked) [Compound 375], the IC50 (G1 APOL1) was under 250 nM and the IC50 (APOL1 G1 Protein) was under 250 nM.

Compound `NCC1CC(c2c(-c3ccc(OC(F)F)cc3)[nH]c3c(F)cc(F)cc23)C1` (centres unmarked) [Compound 182] has an IC50 (G1 APOL1) of under 250 nM and an IC50 (APOL1 G1 Protein) of under 250 nM.

`NCC1CC(c2c(-c3ccc(Cl)cc3)[nH]c3c(F)cc(F)cc23)C1` (mixture of isomers) [Compound 176, (3-(2-(4-chlorophenyl)-5,7-difluoro-1H-indol-3-yl)cyclobutyl)methanamine] was tested, and the IC50 (G1 APOL1) was under 250 nM and the IC50 (APOL1 G1 Protein) was under 250 nM.

For `NC1CC2(C1)CC(c1c(-c3ccc(F)cc3)[nH]c3c(F)cc(F)cc13)C2` (centres unmarked) [Compound 432, 6-[5,7-difluoro-2-(4-fluorophenyl)-1H-indol-3-yl]spiro[3.3]heptan-2-amine], the IC50 (G1 APOL1) was over 1000 nM and the IC50 (APOL1 G1 Protein) was under 250 nM.

`N#Cc1ccc(-c2[nH]c3c(F)cc(F)cc3c2C2CC(CN)C2)cc1` (centres unmarked) [Compound 185] showed an IC50 (G1 APOL1) of under 250 nM and an IC50 (APOL1 G1 Protein) of under 250 nM.

With `COCC(=O)NC1CC(c2c(-c3ccc(F)cc3)[nH]c3c(F)cc(F)cc23)C1` (centres unmarked) [Compound 18, N-[3-[5,7-difluoro-2-(4-fluorophenyl)-1H-indol-3-yl]cyclobutyl]-2-methoxy-acetamide] the IC50 (G1 APOL1) was 250 to 1000 nM and the IC50 (APOL1 G1 Protein) was 250 to 1000 nM.

`NC1CCC(c2c(-c3ccc(F)cc3)[nH]c3c(F)cc(F)cc23)CC1` (centres unmarked) [Compound 433, 4-[5,7-difluoro-2-(4-fluorophenyl)-1H-indol-3-yl]cyclohexanamine] showed an IC50 (G1 APOL1) of under 250 nM and an IC50 (APOL1 G1 Protein) of under 250 nM.

Compound `NC[C@H]1C[C@H](c2c(-c3ccc(F)cc3)[nH]c3c(F)cc(F)cc32)C1` [Compound 188, ((1r,3r)-3-(5,7-difluoro-2-(4-fluorophenyl)-1H-indol-3-yl)cyclobutyl)methanamine] has an IC50 (G1 APOL1) of under 250 nM and an IC50 (APOL1 G1 Protein) of under 250 nM.

Compound `NCC1CC(c2c(-c3ccc(F)cc3)[nH]c3c(F)cc(F)cc23)C1` (mixture of isomers) [Compound 186, (3-(5,7-difluoro-2-(4-fluorophenyl)-1H-indol-3-yl)cyclobutyl)methanamine] has an IC50 (G1 APOL1) of under 250 nM and an IC50 (APOL1 G1 Protein) of under 250 nM.

Compound `CC1(CN)CC(c2c(-c3ccc(F)cc3)[nH]c3c(F)cc(F)cc23)C1` (centres unmarked) [Compound 426, [3-[5,7-difluoro-2-(4-fluorophenyl)-1H-indol-3-yl]-1-methyl-cyclobutyl]methanamine] has an IC50 (G1 APOL1) of 250 to 1000 nM and an IC50 (APOL1 G1 Protein) of under 250 nM.

In the case of `O=C(CO)NCC1CC(c2c(-c3ccc(F)cc3)[nH]c3c(F)cc(F)cc23)C1` (centres unmarked) [Compound 214], the IC50 (G1 APOL1) is reported as 250 to 1000 nM and the IC50 (APOL1 G1 Protein) is reported as 250 to 1000 nM.

`NC1CC(c2c(-c3ccc(Cl)cc3)[nH]c3c(F)cc(F)cc23)C1` (mixture of isomers) [Compound 10, 3-[2-(4-chlorophenyl)-5,7-difluoro-1H-indol-3-yl]cyclobutanamine] gave an IC50 (G1 APOL1) of under 250 nM and an IC50 (APOL1 G1 Protein) of under 250 nM.

`Cc1ccc(-c2[nH]c3c(F)cc(F)cc3c2C2CC(CN)C2)cc1` (centres unmarked) [Compound 184] gave an IC50 (G1 APOL1) of under 250 nM and an IC50 (APOL1 G1 Protein) of under 250 nM.

`OCCNCC1CC(c2c(-c3ccc(F)cc3)[nH]c3c(F)cc(F)cc23)C1` (centres unmarked) [Compound 374, 2-[[3-[5,7-difluoro-2-(4-fluorophenyl)-1H-indol-3-yl]cyclobutyl]methylamino]ethanol] was tested, and the IC50 (G1 APOL1) was under 250 nM and the IC50 (APOL1 G1 Protein) was under 250 nM.

With `CC(C)(O)CC(=O)NC1CC(c2c(-c3ccc(F)cc3)[nH]c3c(F)cc(F)cc23)C1` (centres unmarked) [Compound 16, N-[3-[5,7-difluoro-2-(4-fluorophenyl)-1H-indol-3-yl]cyclobutyl]-3-hydroxy-3-methyl-butanamide] the IC50 (G1 APOL1) was 250 to 1000 nM and the IC50 (APOL1 G1 Protein) was 250 to 1000 nM.

Compound `O=C(C1CCO1)N1CCC(Cc2c(-c3ccc(F)cc3)[nH]c3c(F)cc(F)cc23)C1` (centres unmarked) [Compound 443, [3-[[5,7-difluoro-2-(4-fluorophenyl)-1H-indol-3-yl]methyl]pyrrolidin-1-yl]-(oxetan-2-yl)methanone] has an IC50 (G1 APOL1) of 250 to 1000 nM and an IC50 (APOL1 G1 Protein) of 250 to 1000 nM.

`NCC1(O)CC(c2c(-c3ccc(F)cc3)[nH]c3c(F)cc(F)cc23)C1` (centres unmarked) [Compound 427, 1-(aminomethyl)-3-[5,7-difluoro-2-(4-fluorophenyl)-1H-indol-3-yl]cyclobutanol] showed an IC50 (G1 APOL1) of 250 to 1000 nM and an IC50 (APOL1 G1 Protein) of under 250 nM.

For `Cc1ccc(-c2[nH]c3c(F)cc(F)cc3c2C2CC(N)C2)cc1` (mixture of isomers) [Compound 4, 3-[5,7-difluoro-2-(p-tolyl)-1H-indol-3-yl]cyclobutanamine], the IC50 (G1 APOL1) was under 250 nM and the IC50 (APOL1 G1 Protein) was under 250 nM.

With `O[C@H]1C[C@H](c2c(-c3ccc(F)cc3)[nH]c3c(F)cc(F)cc32)C1` [Compound 174, (1r,3r)-3-(5,7-difluoro-2-(4-fluorophenyl)-1H-indol-3-yl)cyclobutan-1-ol] the IC50 (G1 APOL1) was under 250 nM and the IC50 (APOL1 G1 Protein) was under 250 nM.

Work on `N[C@H]1CC[C@H](c2c(-c3ccc(F)cc3)[nH]c3c(F)cc(F)cc32)CC1` (single isomer, unassigned) [Compound 434, Trans-4-[5,7-difluoro-2-(4-fluorophenyl)-1H-indol-3-yl]cyclohexanamine] yielded an IC50 (G1 APOL1) of 250 to 1000 nM and an IC50 (APOL1 G1 Protein) of under 250 nM.

Work on `Cc1cccc(-c2[nH]c3c(F)cc(F)cc3c2C2CC(CN)C2)c1` (centres unmarked) [Compound 181] yielded an IC50 (G1 APOL1) of under 250 nM and an IC50 (APOL1 G1 Protein) of under 250 nM.

In the case of `OCC1CC(c2c(-c3ccc(F)cc3)[nH]c3c(F)cc(F)cc23)C1` (centres unmarked) [Compound 424, [3-[5,7-difluoro-2-(4-fluorophenyl)-1H-indol-3-yl]cyclobutyl]methanol], the IC50 (G1 APOL1) is reported as under 250 nM and the IC50 (APOL1 G1 Protein) is reported as under 250 nM.

Work on `O=C(CO)NC1CC(c2c(-c3ccc(F)cc3)[nH]c3c(F)cc(F)cc23)C1` (centres unmarked) [Compound 15, N-[3-[5,7-difluoro-2-(4-fluorophenyl)-1H-indol-3-yl]cyclobutyl]-2-hydroxy-acetamide] yielded an IC50 (G1 APOL1) of under 250 nM and an IC50 (APOL1 G1 Protein) of 250 to 1000 nM.

`NC[C@H]1C[C@@H](c2c(-c3ccc(F)cc3)[nH]c3c(F)cc(F)cc32)C1` [Compound 187, ((1s,3s)-3-(5,7-difluoro-2-(4-fluorophenyl)-1H-indol-3-yl)cyclobutyl)methanamine] was tested, and the IC50 (G1 APOL1) was under 250 nM and the IC50 (APOL1 G1 Protein) was under 250 nM.

`NC1CC(c2c(-c3ccc(F)cc3)[nH]c3c(F)cccc23)C1` (centres unmarked) [Compound 6, 3-[7-fluoro-2-(4-fluorophenyl)-1H-indol-3-yl]cyclobutanamine] was tested, and the IC50 (G1 APOL1) was 250 to 1000 nM and the IC50 (APOL1 G1 Protein) was under 250 nM.

In the case of `CC(=O)OC1CC(c2c(-c3ccc(F)cc3)[nH]c3c(F)cc(F)cc23)C1` (mixture of isomers) [Compound 173, [3-[5,7-difluoro-2-(4-fluorophenyl)-1H-indol-3-yl]cyclobutyl]acetate], the IC50 (G1 APOL1) is reported as 250 to 1000 nM and the IC50 (APOL1 G1 Protein) is reported as under 250 nM.

`O=C(NC[C@H]1C[C@H](c2c(-c3ccc(F)cc3)[nH]c3c(F)cc(F)cc32)C1)[C@@H]1CCCN1` [Compound 199] showed an IC50 (G1 APOL1) of under 250 nM.

Work on `OCC(CO)(CO)NCC1CC(c2c(-c3ccc(F)cc3)[nH]c3c(F)cc(F)cc23)C1` (centres unmarked) [Compound 406] yielded an IC50 (G1 APOL1) of over 1000 nM.

`CC[C@H](N)C(=O)NC[C@H]1C[C@H](c2c(-c3ccc(F)cc3)[nH]c3c(F)cc(F)cc32)C1` [Compound 197] showed an IC50 (G1 APOL1) of under 250 nM.

Source: US12281102B2, “Inhibitors of APOL1 and methods of using same” (Vertex Pharmaceuticals Incorporated, priority 2020, dated 2025)
